Patent US8790883B2, “Methods of identifying NF-κB inhibitors” (priority 2003, dated 2014)
Ends that are not written are not given here. Peptide text beside a SMILES is read from it. * marks the point of attachment. BODIPYFLEthylmaleimide = Cc1cc(C)n2c1C=C1C=CC(CCC(=O)NCCN3C(=O)CC(*)C3=O)=[N+]1[B-]2(F)F; BODIPY = not defined here

What was measured:
[1] = system: LPS-induced NF-κB activation; test: NF-κB inhibition assay, first procedure: LPS-induced NF-κB dependent β-galactosidase reporter in 70Z/3-C3 cells; assay type: cell-based, murine; conditions: peptide 2 h, LPS 3 h, 70Z3-C3 cells (FIG. 3D)
Procedure: The resulting cell line, 70Z3-C3, was incubated for 2 hours in the absence or in the presence of 20 μM of antennapedia peptide (Ant), or BODIPY-labeled antennapedia peptide (BODIPY-Ant), or BODIPY-labeled antennapedia peptide coupled to CC2 (BODIPY-Ant-CC2) or LZ (BODIPY-Ant-LZ) peptides, After peptide internalization, cells were treated for 5 hours with LPS (3 μg/ml, (+) in left panel) or untreated (right panel and (−) in left panel) and the NF-κB activity was measured by β-galactosidase assay. Error bars represent the standard deviation of three separate experiments. (B) Concentration dependence of inhibition of LPS-induced NF-κB activation by BODIPY-Ant-CC2 peptide (left panel) or BODIPY-Ant-LZ peptide (right panel). Cells were treated as in (A) but with different concentration of peptide as indicated. The potential of each peptide to inhibit LPS-induced NF-κB activation was measured by determining the IC50 value that correspond to 50% inhibition of LPS-induced NF-κB activation as compared to the control (no peptide) (C). (D) Effect of the N-fusion sequence of antennapedia on the inhibition of NF-κB activation. Control (no peptide) or CC2, or LZ peptides, with (BODIPY-ANT-CC2, BODIPY-ANT-LZ) or without the antennapedia sequence at the N-terminus (CC2, LZ) were incubated for 2 hours with 70Z3-C3 cells followed with (+) or without (−) the LPS-treatment for 3 hours. NF-κB activity was then measured by β-galactosidase assay.
In a first procedure 2.2×10^5 70Z/3-C3 cells in 220 μl of RPMI 1640 supplemented with 10% fetal calf serum (FCS) and 50 μM β-mercaptoethanol were placed in a 96-well plate and incubated with various concentrations of peptide (0 to 20 μM) at 37° C. in 5% CO2 incubator. After two hours an equal portion (100 μl) of each cell sample transferred in two wells containing each 10^5 cells. One aliquot of cells was then treated for 5 hours with lipopolysaccharides from Salmonella abortus (Sigma) at 0.5 μg/ml final concentration, and the other one left-treated. After 5 hours, cells were centrifuged at 400×g for 5 min at room temperature and the cell pellets were washed three times with cold PBS (250 μl) by centrifugation. Cells were then lysed in the lysis buffer (25 mM tris-phosphate buffer at pH 7.8 containing 8 mM magnesium chloride, 1 mM dithioerythreitol, 1% Triton X-100, 15% glycerol and a protease inhibitor mixture (Roche)), and samples were centrifuged at 4° C. for 20 min to clarify the lysate. The supernatant was then kept on ice, and 30 μl was then assayed to measure the β-galactosidase activity with a plate luminometer (Berthold) using the GALACTON-STAR™ as chemiluminescent substrate (BD Biosciences Clontech, Bronstein et al., 1989). Background of reaction was measured by mixing for 1 hour 30 μl of lysis buffer with the reaction buffer (196 μl) and the GALACTON-STAR™ substrate (4 μl) provided by BD Biosciences. In a second procedure and a more stringent assay, 70Z/3-C3 cells (2.2×105 in 220 μl medium) were centrifuged at 400×g at room temperature after peptide internalization for 2 hours, and cell pellets were washed three times with 200 μl of PBS by centrifugation. Cells were then diluted three times with complete medium, and allowed to grow for at least 24 hours. The following steps are identical to the first procedure.
To analyze the inhibition potential of LPS-induced NF-κB activation by cell permeable BODIPY-Ant-CC2 and BODIPY-Ant-LZ peptides, the present inventors stably transfected the murine pre-B 70Z3 cell line with p12XlacZ-kB, which bears the β-galactosidase reporter gene under the control of the NF-κB transcription factor.

[2] = Analytical gel filtration, oligomeric states of peptides; assay type: physicochemical; conditions: 10 μM, Superdex 75, buffer with 0.1 mM DDM
Procedure: All peptides were loaded at a 10 μM concentration on a superdex 75 HR10/30 column equilibrated in a buffer containing 0.1 mM DDM to improve recovery (see “Materials and methods”). Chromatographic profiles of the CC2 mutant (dashed line) and the CC2 wild type (solid line) fused (BODIPY-Ant-CC2 (WT), BODIPY-Ant-CC2 (Mu), or not fused to the antennapedia sequence (CC2 (WT), CC2 (Mu)) are shown in left panels, and elution profiles of the LZ mutant (dashed line) and the wild type (solid line) fused (BODIPY-Ant-LZ (WT), BODIPY-Ant-LZ (Mu), or not fused to the antennapedia sequence (LZ (WT), LZ (Mu)) are represented in right panels. Elution volumes of globular protein markers are indicated by arrows: Oval, ovalbumin (43 kDa); Chym, chymotrypsinogene A (25 kDa); Ribo, Ribonuclease (13.4 kDa) and Apro, aprotinin (6.5 kDa).
The oligomeric states of peptides were determined by filtration as described in Traincard et al., 2003. In brief, 500 μl samples were loaded on a SUPERDEX™ 75 HR 10/30 column equilibrated in 50 mM Tris-HCl pH 8.0 containing 200 mM NaCl and 0.1 mM DDM, at a constant flow rate of 0.4 ml/min. The presence of the DDM detergent was added in the equilibrium buffer to minimize the adsorption in the column and to increase the peptide recovery. The column was calibrated in the same equilibrium buffer with blue dextran 2000 (void volume), dithioerythritol (total volume), bovine serum albumin (67 kDa, Rs=35.2 Å), ovalbumine (43 kDa, Rs=27.5 Å), chymotrypsinogen A (25 kDa, Rs=21.1 Å), ribonuclease A (13.7 kDa, Rs=16.4 Å), cytochrome C (12.4 kDa, Rs=17.7 Å) and aprotinin (6.5 KDa, Rs=13.5 Å).

[3] = Circular dichroism studies of helix stability; assay type: physicochemical
From the text: From circular dichroism studies (CD), it appears that CC2 and LZ peptides adopt a helicoidal structure, depending on their concentration. […] RMN and Rayon X Diffraction studies have confirmed the structure of CC2.

[4] = Cytotoxicity of NLM-DR derived peptides (MTS, FACS, microscope), Table 2
[5] = system: LPS-induced NF-κB activation; test: More stringent NF-κB inhibition assay, second procedure: peptide internalization, washing, 24 h growth, then LPS; assay type: cell-based, murine; conditions: 10 μM peptide
From the text: Left panels show a helical wheel diagram of CC2 (A) and LZ (B) peptides. The view is from the top the molecule. The (a) through (g) positions, which are an essential feature of coiled coil sequence (Vinson, 2002, Mol. Cell. Biol.) represent sequential positions in each peptide sequence. The first (a) and fourth (d) positions that are generally occupied by hydrophobic amino acids constitute the hydrophobic core for parallel as well as antiparallel-coiled coils. Mutations that were introduced in (a) positions of the CC2 variant (BODIPY-Ant-CC2 (Mu); shown as residues 6-40 of SEQ ID NO:3, with glycine mutations corresponding to residues 6-40 of SEQ ID NO:5) or in (d) positions of the LZ variant (BODIPY-Ant-(Mu) are shown. In the right panels, 70Z3-C3 cells were incubated for 2 hours in the absence (control) or in the presence of 10 μM of cell permeable wild type (BODIPY-Ant-CC2 (WT)) or mutant (BODIPY-Ant-CC2 (Mu)) CC2 peptides (A) or wild type (BODIPY-Ant-LZ (WT)) or mutant (BODIPY-Ant-(Mu)) LZ peptides (B). The cells were then extensively washed to remove the excess peptide which had not been internalized and the cells were then diluted three times and allowed to grow for 24 hours before treatment for 5 hours with (+) or without LPS (−). NF-κB activity was measured using the β-galactosidase assay. Error bars represent the standard deviation of two independent experiments.
(A) Sequence alignment of the NEMO-derived LZ (residues 301-336 of SEQ ID NO: 12) and the GCN4 peptides (residues 23-55 of SEQ ID NO:8). Both coiled-coil motifs were aligned using clustalX. Identical and similar amino acid residues (shaded) are indicated by (!) or (*), respectively. (B) Overview and helical wheel diagram of the GCN4 coiled-coil (top view). The amino-acid sequence of GCN4 is shown with its corresponding [a-g] positions and residues that differ from the corresponding NEMO-derived LZ sequence are boxed according to their degree of conservation. Identical (open square) and similar residues (open triangle) are indicated. […] NF-κB activity was measured using the b-galactosidase assay. […]

| Compound | Cellular uptake relative efficiency (FACS) (70Z/3-C3 cells) | Cytotoxicity Cell morphology FACS [4] | Cytotoxicity Cell morphology Microscope [4] | other results |
| --- | --- | --- | --- | --- |
| SKGMQLEDLRQQLQQAEEALVAKQELIDKLKEEAEQHKIV [CC2 (WT)] | – | – | – | LPS-induced NF-κB activation, peptides not fused to antennapedia [1]: same level of activation as the control; Oligomeric state by gel filtration [2]: trimer; Helix stability by circular dichroism [3]: helix more stable than LZ |
| CC[C@H](C)[C@H](NC(=O)[C@H](CC(=O)O)NC(=O)[C@H](C)NC(=O)[C@H](CCC(N)=O)NC(=O)[C@H](C)NC(=O)[C@H](CCCCN)NC(=O)[C@H](CC(C)C)NC(=O)[C@H](CCCCN)NC(=O)[C@H](CCCCN)NC(=O)[C@H](Cc1c[nH]c2ccccc12)NC(=O)[C@H](CCCCN)NC(=O)[C@H](CCSC)NC(=O)[C@H](CCCNC(=N)N)NC(=O)[C@H](CCCNC(=N)N)NC(=O)[C@H](CC(N)=O)NC(=O)[C@H](CCC(N)=O)NC(=O)[C@H](Cc1ccccc1)NC(=O)[C@H](Cc1c[nH]c2ccccc12)NC(=O)[C@@H](NC(=O)[C@H](CCCCN)NC(=O)[C@@H](NC(=O)[C@H](CCC(N)=O)NC(=O)[C@H](CCCNC(=N)N)NC(=O)[C@H](CSC1CC(=O)N(CCNC(=O)CCC2=[N+]3C(=Cc4c(C)cc(C)n4[B-]3(F)F)C=C2)C1=O)NC(C)=O)[C@@H](C)CC)[C@@H](C)CC)C(=O)N[C@@H](Cc1ccc(O)cc1)C(=O)N[C@@H](CCCCN)C(=O)N[C@@H](C)C(=O)N[C@@H](CCCNC(=N)N)C(=O)N[C@@H](Cc1ccccc1)C(=O)N[C@@H](CCC(N)=O)C(=O)N[C@@H](C)C(=O)N[C@@H](CCC(=O)O)C(=O)N[C@@H](CCCNC(=N)N)C(=O)N[C@@H](Cc1c[nH]cn1)C(=O)N[C@@H](C)C(=O)N[C@@H](CCCNC(=N)N)C(=O)N[C@@H](CCC(=O)O)C(=O)N[C@@H](CCCCN)C(N)=O (stereo partly drawn) [BODIPY-Ant-NLM-DR] (Ac-C(BODIPYFLEthylmaleimide)RQIKIWFQNRRMKWKKLKAQADIYKARFQAERHAREK-NH2) | + | – | – | – |
| B-CRQIKIWFQNRRMKWKKLKAQADIYKADFQAERHAREKLVEKKEYSQEQLEQSQREFNKL (C(BODIPY)RQIKIWFQNRRMKWKKLKAQADIYKADFQAERHAREKLVEKKEYSQEQLEQSQREFNKL-NH2; not fully specified (N-terminus); printed as B-CRQIKIWFQNRRMKWKKLKAQADIYKADFQAERHAREKLVEKKEYSQEQLEQSQREFNKL; reading uncertain) [BODIPY-Ant-LZ (Mu)] | – | – | – | Inhibition of NF-κB activation compared to the control [5]: 15% |

Second part, led by results:

| Cellular uptake relative efficiency (FACS) (70Z/3-C3 cells) | Compound | Cytotoxicity Cell morphology FACS [4] | Cytotoxicity Cell morphology Microscope [4] | other results |
| --- | --- | --- | --- | --- |
| ++ | CC[C@H](C)[C@H](NC(=O)[C@H](CC(=O)O)NC(=O)[C@H](C)NC(=O)[C@H](CCC(N)=O)NC(=O)[C@H](C)NC(=O)[C@H](CCCCN)NC(=O)[C@H](CC(C)C)NC(=O)[C@H](CCCNC(=N)N)NC(=O)[C@H](CCCNC(=N)N)NC(=O)[C@H](CCCNC(=N)N)NC(=O)[C@H](CCCNC(=N)N)NC(=O)[C@H](CCCNC(=N)N)NC(=O)[C@H](CCCNC(=N)N)NC(=O)[C@H](CCCNC(=N)N)NC(=O)[C@H](CCCNC(=N)N)NC(=O)[C@H](CCCNC(=N)N)NC(=O)[C@H](CSC1CC(=O)N(CCNC(=O)CCC2=[N+]3C(=Cc4c(C)cc(C)n4[B-]3(F)F)C=C2)C1=O)NC(C)=O)C(=O)N[C@@H](Cc1ccc(O)cc1)C(=O)N[C@@H](CCCCN)C(=O)N[C@@H](C)C(=O)N[C@@H](CCCNC(=N)N)C(=O)N[C@@H](Cc1ccccc1)C(=O)N[C@@H](CCC(N)=O)C(=O)N[C@@H](C)C(=O)N[C@@H](CCC(=O)O)C(=O)N[C@@H](CCCNC(=N)N)C(=O)N[C@@H](Cc1c[nH]cn1)C(=O)N[C@@H](C)C(=O)N[C@@H](CCCNC(=N)N)C(=O)N[C@@H](CCC(=O)O)C(=O)N[C@@H](CCCCN)C(N)=O (stereo partly drawn) [BODIPY-R9-NLM-DR] (Ac-C(BODIPYFLEthylmaleimide)RRRRRRRRRLKAQADIYKARFQAERHAREK-NH2) | no | no | Cytotoxicity MTS Assay ([4]; MTS cell proliferation assay (Promega)): no |
| ++++ | CC[C@H](C)[C@H](NC(=O)[C@H](CC(=O)O)NC(=O)[C@H](C)NC(=O)[C@H](CCC(N)=O)NC(=O)[C@H](C)NC(=O)[C@H](CCCCN)NC(=O)[C@H](CC(C)C)NC(=O)[C@H](CCCNC(=N)N)NC(=O)[C@H](CCCNC(=N)N)NC(=O)[C@H](CCCNC(=N)N)NC(=O)[C@H](CCCNC(=N)N)NC(=O)[C@H](CCCNC(=N)N)NC(=O)[C@H](CCCNC(=N)N)NC(=O)[C@H](CCCNC(=N)N)NC(=O)[C@H](CSC1CC(=O)N(CCNC(=O)CCC2=[N+]3C(=Cc4c(C)cc(C)n4[B-]3(F)F)C=C2)C1=O)NC(C)=O)C(=O)N[C@@H](Cc1ccc(O)cc1)C(=O)N[C@@H](CCCCN)C(=O)N[C@@H](C)C(=O)N[C@@H](CCCNC(=N)N)C(=O)N[C@@H](Cc1ccccc1)C(=O)N[C@@H](CCC(N)=O)C(=O)N[C@@H](C)C(=O)N[C@@H](CCC(=O)O)C(=O)N[C@@H](CCCNC(=N)N)C(=O)N[C@@H](Cc1c[nH]cn1)C(=O)N[C@@H](C)C(=O)N[C@@H](CCCNC(=N)N)C(=O)N[C@@H](CCC(=O)O)C(=O)N[C@@H](CCCCN)C(N)=O (stereo partly drawn) [BODIPY-R7-NLM-DR] (Ac-C(BODIPYFLEthylmaleimide)RRRRRRRLKAQADIYKARFQAERHAREK-NH2) | no | no | – |
